Test results as given in patent US4330529A, “Antibacterial composition” (Fujisawa Pharmaceutical Co., Ltd., priority 1979, dated 1982).
Like-named read-outs stand apart in the source and are kept apart here.

Key:
Format in all cases: cell-based
[1] = test system: Pseudomonas aeruginosa No.7; assay: MIC and FIC, Nutrient agar, multiple inoculator (Test 4); details: P. aeruginosa No.7, 10^8 cells/ml, 20 h
Protocol: (§1) After the incubation was carried out at 37° C. for 20 hours, MIC values were determined.
(§2) FIC values and FIC Index were calculated in substantially the same manner as described in Test 1.

Staphylococcus aureus 3 = assay: MIC and FIC, Nutrient agar (Tests 6, 7); details: Staphylococcus aureus; S. aureus 3; 18 h; read-out: MIC
Protocol: as §2

Escherichia coli 116 = assay: MIC and FIC, Nutrient agar (Test 7); details: E. coli 116, 18 h
Protocol: as §2

[2] = test system: Alcaligenes faecalis 1311-1; assay: MIC and FIC, Nutrient agar (Test 2); details: 13111, A. faecalis 1311-1, 20 h
Protocol: as §1, §2

Proteus mirabilis 5 = assay: MIC and FIC, Nutrient agar (Test 7); details: P. mirabilis 5, 18 h
Protocol: as §2

Proteus mirabilis 48 = assay: MIC and FIC, Nutrient agar (Test 7); details: P. mirabilis 48, 18 h
Protocol: as §2

Serratia marcescens 9 = assay: MIC and FIC, Nutrient agar (Test 6); details: Serratia marcescens; S. marcescens 9; 18 h; read-out: MIC
Protocol: as §2

[3] = test system: Pseudomonas aeruginosa No.14; assay: MIC and FIC, Nutrient agar, multiple inoculator (Test 4); details: P. aeruginosa No.14, 10^8 cells/ml, 20 h
Protocol: as §1, §2

Escherichia coli 82 = assay: MIC and FIC, Nutrient agar (Test 7); details: E. coli 82, 18 h
Protocol: as §2

[4] = test system: Escherichia coli 1341-18R^+; assay: MIC and FIC, Nutrient agar (Test 3); details: 20 h
Proteus rettgeri 1434-3 = assay: MIC and FIC, Nutrient agar (Test 3); details: Providencia rettgeri, 14343; P. rettgeri 1434-3; 20 h
Protocol: as §1, §2

Enterobacter cloacae 18 = assay: MIC and FIC, Nutrient agar (Tests 7, 9); details: E. cloacae 18, 18 h
Protocol: as §2

## O=CN(O)CCCP(=O)(O)O [A (Table 2)]
[1]
  MIC: 200 µg/mL
Staphylococcus aureus 3
  MIC: 400 µg/mL
Escherichia coli 116
  MIC: 200 µg/mL
[2]
  MIC: ≥ 400 µg/mL
Proteus mirabilis 5
  MIC: 25 µg/mL
Proteus mirabilis 48
  MIC: 25 µg/mL
Serratia marcescens 9
  MIC: 200 µg/mL
[3]
  MIC: 400 µg/mL
Escherichia coli 82
  MIC: 100 µg/mL
[4]
  MIC: 6.25 µg/mL
Proteus rettgeri 1434-3
  MIC: 1.56 µg/mL
Enterobacter cloacae 18; listed as A (Table 14)
  MIC: 100 µg/mL
Enterobacter cloacae 18; Enterobacter cloacae, read-out: MIC
  MIC: 200 µg/mL
